Test results: patent US10174005B2, “Fused pyrimidines as inhibitors of p97 complex” (Cleave Biosciences, Inc., priority 2014, dated 2019)

Columns and labels:
[1] = test system: K48-Ub (lysine-48 chain linkage of poly-ubiquitin) in A549 cells; assay: A549 K48-Ub accumulation, immunofluorescence high-content imaging; format: cell-based; conditions: Homo sapiens, 6 hr incubation
Description: Image-analysis is used to generate quantitative data from these assays that can be fit to a four-parameter sigmoid curve to derive IC50 values. Substrates of the ubiquitin-proteasome system, such as p53, are monitored after tumor cell lines are incubated with compounds for several hours. Accumulation of these proteins indicates an inhibition of proteasome-mediated degradation. Accumulation of lysine-48 chain linkage of poly-ubiquitin is also monitored by immunofluorescence as an indicator of ubiquitin-proteasome system inhibition. Both LC3 and SQSTM1 are mediators of autophagy. The localization and amounts of these proteins are monitored by immunofluorescence and report on the activity and inhibition of autophagy in response to p97 inhibition.
(§1) Cell Plating: • Seed cells ˜16 hrs prior to compound treatment • Plate 25 μL of A549 cells in every well of 384-well plate using multidrop. • Two (2) black plates for IF at 2500 cells/well • Let plate sit at room temp for 10-15 minutes prior to putting in incubator to • allow cells to stick in middle of plate. • One (1) white plate for viability at 500 cells/well.
(§2) Day 2 Treatment of Cultured Cells with Test Compounds • Treat Cells: • Serial dilute compounds with a 10 point 2-fold serial dilution in DMSO to make 250× stock compound solution • Dilute compounds 1:125 in cell culture media to make a 2× solution Add • 25 μl of dilution compounds to cell plates in well duplicates Put cells back in incubator (6 hr incubation for black plates, 72 hr incubation for white plates).
Fix/Stain Black Plates: • Incubate cells in black plates with compound at 37 deg C. for 6 hrs. add 15 μL of 16% Paraformaldehyde (PFA) directly into media of each well, incubate at room temp for 5 min, flick plate and wash in 50 μL of PBS block in 50 μL of Blocking Buffer for 30 minutes (can go up to several hours) • Blocking buffer: 1×PBS, 1% BSA, 0.3% Triton-X 100, Hoechst (1:10,000) incubate in 25 μL of primary antibody in blocking buffer at 4 deg C. over night
Secondary Antibodies: • AlexaFluor488 Goat anti-Rabbit 1:2,000 (Life Tech A11008) • AlexaFluor555 Goat anti-Mouse 1:2.000 (Life Tech A21422)
Day 3/4 • Black Plate Staining (cont): • wash black plates 3× in 50 μL PBS (˜5 min each) incubate in 25 μl of secondary antibody (1:2,000) in blocking buffer for 1-2 hrs at room temp (alexafluor488-anti-Rabbit/alexafluor555-anti-Mouse) • wash 4× in 50 μL PBS (˜5 min each) • leave plates in PBS for imaging • clean bottom of plates with 70% EtOH
Imaging: • Image plates in high content microscope with 405 nm, 488 nm and 555 nm filters
Data Analysis: • Nuclear counts and cellular intensities of each markers are measured using Hoechst as a nuclear marker with an automated image analysis protocol using Matlab software (Math Works)

A549 cells = assay: Cultured cancer cell viability assay (cell titer glo, CTG) in A549 cells; format: cell-based; conditions: Homo sapiens; A549 cells, 72 hr incubation, cell titer glo; read-out: A549 CTG IC50
From the text: Anti-tumor effects are monitored in cultured cancer cells after several days of compound treatment. The cell titer glo assay (Promega) measures the amount of ATP present as a proxy for cellular viability. Cellular counting is done using high-content microscopy followed by image analysis. A hanging drop 3D-culture system (3D Biomatrix) is used followed by cell titer glo to measure growth in a tumor-like environment.
The cellular assay provides information about the anti-neoplastic activity of the compounds of the invention. The compounds are tested against cultured cancer cells to determine whether or not the compounds of the invention are capable of intersecting with cancer cells to minimize or eliminate such cells. The assay involves establishing colonies of such cells and then treating them with the test compound under specified conditions and analysis regima to determine results.
as §1, §2
Viability Assay: • Thaw an aliquot of frozen cell titer glo (Promega G7572) at room temperature. • Add 45 mL of NaCl/PBS solution to 5 ml of cell titer glo (10×). • Remove white plates from incubator, leave at room temp for 30 minutes. • Add 25 μl of diluted cell titer glo to each well. • Shake plate for >1 minute. • Incubate plate for >5 minutes to stabilize luminescence. • Luminescence is stable for up to 3 hours. • Read luminescence on plate reader

p97 = p97 (Homo sapiens, UniProt P55072); assay: P97 ATPase biochemical assay (ADP Glo); conditions: 20 nM p97, 20 μM ATP, 37° C. for 15 minutes
Description: The ATPase assay is performed according the following protocol: Purified enzyme (20 nM p97), substrate (20 μM ATP) and a dose titration of compounds are mixed in buffer (50 mM TRIS pH 7.5, 20 mM MgCl2, 0.02% TX-100, 1 mM DTT, 0.2% (v/v) glycerol) and incubated at 37° C. for 15 minutes. The reaction is terminated and the level of product generated is measured using the ADP Glo Assay Kit (Promega, Madison Wis.). Plotting product generated versus compound concentration and using a four-parameter fit model generates an IC50 value for each compounds.
The p97 assay is an initial screening assay used to determine inhibitory activity of the fused pyrimidine compounds of the invention against the p97 complex. As discussed above, inhibition of activity of the p97 proteosome complex can enable apoptosis and cause elimination of neoplastic cells (cancer cells). The method follows that of Christianson in Nat. Cell Biol., (2011) 14:93.
Assay Buffer is a mixture of 50 mM TRIS pH 7.5, 20 mM MgCl2, 0.02% TX-100, 1 mM DTT and 0.2% (v/v) Glycerol. The well plate is Platetype: Corning 3674, 384w plate. The identification kit is an ADP glo kit (Promega): stop buffer, detection reagent.
Serial dilute compound in DMSO in a 1:3.33-fold 10 point serial dilution.
in each well of 384w plate add the following reagents:
0.5 μL compound serial diluted in DMSO (Final Conc. 10%)
2 μL ATP (Final Conc.=20 uM, diluted in assay buffer)
2.5 μL p97 (Final Conc.=20 nM, diluted in assay buffer)
Incubate at 37 deg C. for 15 min.
Add 5 μL of stop buffer, incubate at RT for 40 min.
Add 10 μL of detection reagent, incubate at RT for 30 min.
Read luminescence on Envision plate reader.
Upon obtaining the data from the luminescence reading, the data may be analyzed as follows:
Normalize luminescence data using no enzyme (full inhibition) and no compound (no inhibition) controls. Plot normalized luminescence data against log-transformed concentration values and fit to a sigmoidal curve to determine IC50 values (done in Collaborative Drug Discovery software).

Chain of p97 (P55072 whole entry): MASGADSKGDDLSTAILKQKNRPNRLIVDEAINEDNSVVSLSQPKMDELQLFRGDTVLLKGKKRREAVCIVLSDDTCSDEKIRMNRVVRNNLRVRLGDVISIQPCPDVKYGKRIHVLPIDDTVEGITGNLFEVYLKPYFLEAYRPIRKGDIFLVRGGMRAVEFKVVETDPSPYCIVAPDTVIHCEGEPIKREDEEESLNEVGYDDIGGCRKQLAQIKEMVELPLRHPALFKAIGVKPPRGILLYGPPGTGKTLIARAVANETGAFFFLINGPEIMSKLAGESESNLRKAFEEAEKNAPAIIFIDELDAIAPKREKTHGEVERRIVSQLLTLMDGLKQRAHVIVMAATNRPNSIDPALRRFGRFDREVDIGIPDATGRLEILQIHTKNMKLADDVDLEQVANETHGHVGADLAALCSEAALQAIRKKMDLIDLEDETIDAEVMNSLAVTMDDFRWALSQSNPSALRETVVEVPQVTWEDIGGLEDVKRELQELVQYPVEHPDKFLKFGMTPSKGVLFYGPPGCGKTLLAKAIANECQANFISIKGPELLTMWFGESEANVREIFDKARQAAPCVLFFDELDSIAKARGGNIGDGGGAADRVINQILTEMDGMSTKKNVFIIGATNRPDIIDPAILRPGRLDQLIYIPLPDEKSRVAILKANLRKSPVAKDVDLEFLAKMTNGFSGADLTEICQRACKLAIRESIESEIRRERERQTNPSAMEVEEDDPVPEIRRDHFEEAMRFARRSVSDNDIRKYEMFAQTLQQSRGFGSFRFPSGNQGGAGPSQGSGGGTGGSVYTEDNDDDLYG

| Compound | IC50 [1] | IC50 (A549 cells) | IC50 (p97) | Peff A B, Range (Caco-2 cells; pH 7.4 Caco-2, A to B) | Peff B A, Range (Caco-2 cells; pH 7.4 Caco-2, B to A) |
| --- | --- | --- | --- | --- | --- |
| NCc1cc2c(C(N)=O)cccc2n1-c1nc(NCc2ccccc2)c2c(n1)OCCC2 [FF32, 2-(aminomethyl)-1-(4-(benzylamino)-6,7-dihydro-5H-pyrano[2,3-d]pyrimidin-2-yl)-1H-indole-4-carboxamide] | < 10000 nM | < 10000 nM | < 100 nM |  |  |
| NC(=O)c1cccc2c1cnn2-c1nc2c(c(NCc3ccccc3)n1)CCCC2 [FF03, 1-(4-(benzylamino)-5,6,7,8-tetrahydroquinazolin-2-yl)-1H-indazole-4-carboxamide] | < 1000 nM | < 1000 nM | < 30 nM |  |  |
| Cc1cc2c(C(N)=O)cccc2n1-c1nc(NCc2cccc(F)c2)c2c(n1)OCCC2 [FF09, 1-(4-((3-fluorobenzyl)amino)-6,7-dihydro-5H-pyrano[2,3-d]pyrimidin-2-yl)-2-methyl-1H-indole-4-carboxamide] | < 1000 nM | < 1000 nM | < 30 nM |  |  |
| Cc1cc2c(C(N)=O)cccc2n1-c1nc(NCc2ccccc2)c2c(n1)C(C)CNC2 (centres unmarked) [FF19, 1-(4-(benzylamino)-8-methyl-5,6,7,8-tetrahydropyrido[4,3-d]pyrimidin-2-yl)-2-methyl-1H-indole-4-carboxamide] | < 1000 nM | < 3000 nM | < 100 nM |  |  |
| Cc1[nH]c2c(C(N)=O)cccc2c1-c1nc2c(c(NCc3ccccc3)n1)CCCC2 [FF05, 3-(4-(benzylamino)-5,6,7,8-tetrahydroquinazolin-2-yl)-2-methyl-1H-indole-7-carboxamide] | < 3000 nM | < 3000 nM | < 30 nM |  |  |
| NC(=O)c1cccc2c1cnn2-c1nc(NCc2ccccc2)c2c(n1)OCCC2 [FF28, 1-(4-(benzylamino)-6,7-dihydro-5H-pyrano[2,3-d]pyrimidin-2-yl)-1H-indazole-4-carboxamide] | < 3000 nM | < 3000 nM | < 100 nM |  |  |
| Cc1cc2c(C(N)=O)cccc2n1-c1nc2c(c(NCc3ccccc3)n1)NCCC2 [FF34, 1-(4-(benzylamino)-5,6,7,8-tetrahydropyrido[3,2-d]pyrimidin-2-yl)-2-methyl-1H-indole-4-carboxamide] | < 1000 nM | < 1000 nM | < 30 nM |  |  |
| COc1nc2c(C(N)=O)cccc2n1-c1nc(NCc2ccccc2)c2c(n1)OCCC2 [FF24, 1-(4-(benzylamino)-6,7-dihydro-5H-pyrano[2,3-d]pyrimidin-2-yl)-2-methoxy-1H-benzo[d]imidazole-4-carboxamide] | < 3000 nM | < 3000 nM | < 30 nM |  |  |
| Cc1[nH]c2c(C(N)=O)cccc2c1-c1nc(NCc2ccccc2)c2c(n1)OCCC2 [FF27, 3-(4-(benzylamino)-6,7-dihydro-5H-pyrano[2,3-d]pyrimidin-2-yl)-2-methyl-1H-indole-7-carboxamide] | < 3000 nM | < 3000 nM | < 100 nM |  |  |
| CC(C)NCC(O)COc1cccc2ccccc12 (centres unmarked) [Propranolol] |  |  |  | 18.50-36.80 × E-6 cm/sec | 16.30-31.40 × E-6 cm/sec |
| Cc1cc2c(C(N)=O)cccc2n1-c1nc2c(c(NCc3cccc(F)c3)n1)CCCN2 [FF26, 1-(4-((3-fluorobenzyl)amino)-5,6,7,8-tetrahydropyrido[2,3-d]pyrimidin-2-yl)-2-methyl-1H-indole-4-carboxamide] | < 3000 nM | < 3000 nM | < 30 nM |  |  |
| Cc1cc2c(C(N)=O)cccc2n1-c1nc2c(c(NCc3cccc(F)c3)n1)NCCC2 [FF25, 1-(4-((3-fluorobenzyl)amino)-5,6,7,8-tetrahydropyrido[3,2-d]pyrimidin-2-yl)-2-methyl-1H-indole-4-carboxamide] | < 3000 nM | < 3000 nM | < 30 nM |  |  |
| Cc1cc2c(C(N)=O)cccc2n1-c1nc2c(c(NCc3ccccc3)n1)CCCN2 [FF07, 1-(4-(benzylamino)-5,6,7,8-tetrahydropyrido[2,3-d]pyrimidin-2-yl)-2-methyl-1H-indole-4-carboxamide] | < 1000 nM | < 1000 nM | < 30 nM |  |  |
| Cc1[nH]c2c(C(N)=O)cccc2c1-c1nc2c(c(NCc3ccccc3)n1)COCC2 [FF10, 3-(4-(benzylamino)-7,8-dihydro-5H-pyrano[4,3-d]pyrimidin-2-yl)-2-methyl-1H-indole-7-carboxamide] | < 3000 nM | < 3000 nM | < 100 nM |  |  |
| Cc1cc2c(C(N)=O)cccc2n1-c1nc2c(c(NCc3ccccc3)n1)N(C)CCC2 [FF21, 1-(4-(benzylamino)-5-methyl-5,6,7,8-tetrahydropyrido[3,2-d]pyrimidin-2-yl)-2-methyl-1H-indole-4-carboxamide] | < 1000 nM | < 1000 nM | < 30 nM |  |  |
| Cc1cc2c(C(N)=O)cccc2n1-c1nc2c(c(NCc3cccc(F)c3)n1)N(C)CCC2 [FF12, 1-(4-((3-fluorobenzyl)amino)-5-methyl-5,6,7,8-tetrahydropyrido[3,2-d]pyrimidin-2-yl)-2-methyl-1H-indole-4-carboxamide] | < 1000 nM | < 1000 nM | < 30 nM |  |  |
